Reference: patent US20250154141A1 (University of Florida Research Foundation, Incorporated, priority 2021, published 2025)
pIC50: −log10 of the molar value. Where two headings read alike, the source gives them in different places.

Tests used:
MOLT-4 = assay: Cell viability assay (MTS) in MOLT-4 cells; format: cell-based; settings: Homo sapiens
Method: (§1) Acute lymphoblastic leukemia cells (MOLT-4 and RS4; 11) were incubated with increasing concentrations of Bcl-xL degraders for 48 h. Cell viability was measured by tetrazolium-based MTS assay.

RS4; 11 = assay: Cell viability assay (MTS) in RS4; 11 cells; format: cell-based; parameters: Anti-Cancer Activity IC50 (48 hr) RS4; 11: scale not given here; settings: for pIC50: Homo sapiens
Method: as §1

[1] = MOLT-4, Table 2, 48 hr, MTS, read-out: Anti-Cancer Activity IC50 (48 hr) MOLT-4
[2] = RS4-11, Table 2, 48 hr, MTS, read-out: Anti-Cancer Activity IC50 (48 hr) RS4, 11
[3] = MOLT-4, Table 2A, 48 hr, MTS, read-out: Anti-Cancer Activity IC50 (48 hr) MOLT-4
[4] = RS4-11, Table 2A, 48 hr, MTS, read-out: Anti-Cancer Activity IC50 (48 hr) RS4, 11
[5] = MOLT-4, Table 5, 48 h, read-out: MOLT-4 48 h IC50
[6] = RS4-11, Table 5, 48 h, read-out: RS4 48 h IC50

| SMILES | pIC50 (MOLT-4; [1]) | pIC50 (RS4; 11; [2]) | other results |
| --- | --- | --- | --- |
| Cc1ncsc1-c1ccc([C@H](C)NC(=O)[C@@H]2C[C@@H](O)CN2C(=O)[C@@H](NC(=O)CC2CCN(CC(=O)N3CCN(CC4(C)CCC(c5ccc(Cl)cc5)=C(CN5CCN(c6ccc(C(=O)NS(=O)(=O)c7ccc(N[C@H](CCN8CCOCC8)CSc8ccccc8)c(S(=O)(=O)C(F)(F)F)c7)cc6)CC5)C4)CC3)CC2)C(C)(C)C)cc1 (stereo partly shown) [Compound 27] | 6.30 to 7.00 | 6.30 to 7.00 | – |
| Cc1ncsc1-c1ccc([C@H](C)NC(=O)[C@@H]2C[C@@H](O)CN2C(=O)[C@@H](NC(=O)CCCCCOCc2cn(CCCC(=O)NCC3(C)CCC(c4ccc(Cl)cc4)=C(CN4CCN(c5ccc(C(=O)NS(=O)(=O)c6ccc(N[C@H](CCN7CCOCC7)CSc7ccccc7)c(S(=O)(=O)C(F)(F)F)c6)cc5)CC4)C3)nn2)C(C)(C)C)cc1 (stereo partly shown) [Compound 22] | 6.30 to 7.00 | 6.30 to 7.00 | – |
| Cc1ncsc1-c1ccc([C@H](C)NC(=O)[C@@H]2C[C@@H](O)CN2C(=O)[C@@H](NC(=O)CCCCCCC(=O)N2CCN(CC3(C)CCC(c4ccc(Cl)cc4)=C(CN4CCN(c5ccc(C(=O)NS(=O)(=O)c6ccc(N[C@H](CCN(C)C7CCC7)CSc7ccccc7)c([N+](=O)[O-])c6)cc5)CC4)C3)CC2)C(C)(C)C)cc1 (stereo partly drawn) [Compound 36, (2S,4R)-1-((2S)-2-(8-(4-((4′-chloro-6-((4-(4-(((4-(((R)-4-(cyclobutyl(methyl)amino)-1-(phenylthio)butan-2-yl)amino)-3-nitrophenyl)sulfonyl)carbamoyl)phenyl)piperazin-1-yl)methyl)-4-methyl-2,3,4,5-tetrahydro-[1,1′-biphenyl]-4-yl)methyl)piperazin-1-yl)-8-oxooctanamido)-3,3-dimethylbutanoyl)-4-hydroxy-N—((S)-1-(4-(4-methylthiazol-5-yl)phenyl)ethyl)pyrrolidine-2-carboxamide] | 7.00 to 7.70 | – | Anti-Cancer Activity IC50 (48 hr) RS4; 11 (RS4; 11; Table 2, 48 hr, MTS): ++ ++ |
| Cc1ncsc1-c1ccc([C@H](C)NC(=O)[C@@H]2C[C@@H](O)CN2C(=O)[C@@H](NC(=O)CCCCS(=O)(=O)N2CCN(C[C@]3(C)CCC(c4ccc(Cl)cc4)=C(CN4CCN(c5ccc(C(=O)NS(=O)(=O)c6ccc(N[C@H](CCN7CCCOCC7)CSc7ccccc7)c(S(=O)(=O)C(F)(F)F)c6)cc5)CC4)C3)CC2)C(C)(C)C)cc1 [Compound 110] | – | – | pIC50 (MOLT-4; [3]): 7.00 to 7.70; pIC50 (RS4; 11; [4]): > 7.70 |
| Cc1ncsc1-c1ccc([C@H](C)NC(=O)[C@@H]2C[C@@H](O)CN2C(=O)[C@@H](NC(=O)CCCCCNC(=O)c2ccc(N3CCN(CCN(C)CC4(C)CCC(c5ccc(Cl)cc5)=C(CN5CCN(c6ccc(C(=O)NS(=O)(=O)c7ccc(N[C@H](CCN8CCOCC8)CSc8ccccc8)c(S(=O)(=O)C(F)(F)F)c7)cc6)CC5)C4)CC3)nc2)C(C)(C)C)cc1 (stereo partly shown) [Compound 9] | 7.00 to 7.70 | 7.00 to 7.70 | – |
| Cc1ncsc1-c1ccc([C@H](C)NC(=O)[C@@H]2C[C@@H](O)CN2C(=O)[C@@H](NC(=O)CN2C3CC2CN(CC(=O)N2CCN(CC4(C)CCC(c5ccc(Cl)cc5)=C(CN5CCN(c6ccc(C(=O)NS(=O)(=O)c7ccc(N[C@H](CCN8CCOCC8)CSc8ccccc8)c(S(=O)(=O)C(F)(F)F)c7)cc6)CC5)C4)CC2)C3)C(C)(C)C)cc1 (stereo partly shown) [Compound 31] | – | – | pIC50 (MOLT-4; MOLT-4, 48 h, read-out: Anti-Cancer Activity IC50 (48 hr) MOLT-4): 6.30 to 7.00; pIC50 (RS4; 11; RS4-11, 48 h, read-out: Anti-Cancer Activity IC50 (48 hr) RS4, 11): 6.30 to 7.00 |
| Cc1ncsc1-c1ccc([C@H](C)NC(=O)[C@@H]2C[C@@H](O)CN2C(=O)[C@@H](NC(=O)CNC(=O)c2ccc(N3CCN(CCN(C)CC4(C)CCC(c5ccc(Cl)cc5)=C(CN5CCN(c6ccc(C(=O)NS(=O)(=O)c7ccc(N[C@H](CCN8CCOCC8)CSc8ccccc8)c(S(=O)(=O)C(F)(F)F)c7)cc6)CC5)C4)CC3)nc2)C(C)(C)C)cc1 (stereo partly shown) [Compound 7] | 6.30 to 7.00 | 7.00 to 7.70 | – |
| Cc1ncsc1-c1ccc([C@H](C)NC(=O)[C@@H]2C[C@@H](O)CN2C(=O)[C@@H](NC(=O)CN2CCN(CCNC(=O)c3ccc(CN4CCN(C[C@]5(C)CCC(c6ccc(Cl)cc6)=C(CN6CCN(c7ccc(C(=O)NS(=O)(=O)c8ccc(N[C@H](CCN9CCCOCC9)CSc9ccccc9)c(S(=O)(=O)C(F)(F)F)c8)cc7)CC6)C5)CC4)nc3)CC2)C(C)(C)C)cc1 [Compound 114] | – | – | pIC50 (MOLT-4; [3]): > 7.70; pIC50 (RS4; 11; [4]): > 7.70 |
| CCN(CCO)CC[C@H](CSc1ccccc1)Nc1ccc(S(=O)(=O)NC(=O)c2ccc(N3CCN(CC4=C(c5ccc(Cl)cc5)CCC(C)(CN5CCN(C(=O)CCCCCCC(=O)N[C@H](C(=O)N6C[C@H](O)C[C@H]6C(=O)N[C@@H](C)c6ccc(-c7scnc7C)cc6)C(C)(C)C)CC5)C4)CC3)cc2)cc1[N+](=O)[O-] (stereo partly drawn) [Compound 43, (2S,4R)-1-((2S)-2-(8-(4-((4′-chloro-6-((4-(4-(((4-(((R)-4-(ethyl(2-hydroxyethyl)amino)-1-(phenylthio)butan-2-yl)amino)-3-nitrophenyl)sulfonyl)carbamoyl)phenyl)piperazin-1-yl)methyl)-4-methyl-2,3,4,5-tetrahydro-[1,1′-biphenyl]-4-yl)methyl)piperazin-1-yl)-8-oxooctanamido)-3,3-dimethylbutanoyl)-4-hydroxy-N—((S)-1-(4-(4-methylthiazol-5-yl)phenyl)ethyl)pyrrolidine-2-carboxamide] | 7.00 to 7.70 | > 7.70 | pIC50 (MOLT-4; [5]): 7.11; pIC50 (RS4; 11; [6]): 8.14 |
| Cc1ncsc1-c1ccc([C@H](C)NC(=O)[C@@H]2C[C@@H](O)CN2C(=O)[C@@H](NC(=O)CCCCCNC(=O)c2ccc(N3CCN(C[C@]4(C)CCC(c5ccc(Cl)cc5)=C(CN5CCN(c6ccc(C(=O)NS(=O)(=O)c7ccc(N[C@H](CCN8C[C@H]9C[C@@H]8CO9)CSc8ccccc8)c(S(=O)(=O)C(F)(F)F)c7)cc6)CC5)C4)CC3)nc2)C(C)(C)C)cc1 [Compound 72] | > 7.70 | > 7.70 | pIC50 (MOLT-4; MOLT-4, Table 4, 48 h, read-out: MOLT-4 48 h IC50): 8.36; pIC50 (RS4; 11; RS4-11, Table 4, 48 h, read-out: RS4 48 h IC50): 8.15 |
| Cc1ncsc1-c1ccc([C@H](C)NC(=O)[C@@H]2C[C@@H](O)CN2C(=O)[C@@H](NC(=O)CN2CCC(CN3CCN(CC4(C)CCC(c5ccc(Cl)cc5)=C(CN5CCN(c6ccc(C(=O)NS(=O)(=O)c7ccc(N[C@H](CCN8CCOCC8)CSc8ccccc8)c(S(=O)(=O)C(F)(F)F)c7)cc6)CC5)C4)CC3)CC2)C(C)(C)C)cc1 (stereo partly drawn) [Compound 16, (2S,4R)-1-((2S)-2-(2-(4-((4-((4′-chloro-4-methyl-6-((4-(4-(((4-(((R)-4-morpholino-1-(phenylthio)butan-2-yl)amino)-3-((trifluoromethyl)sulfonyl)phenyl)sulfonyl)carbamoyl)phenyl)piperazin-1-yl)methyl)-2,3,4,5-tetrahydro-[1,1′-biphenyl]-4-yl)methyl)piperazin-1-yl)methyl)piperidin-1-yl)acetamido)-3,3-dimethylbutanoyl)-4-hydroxy-N—((S)-1-(4-(4-methylthiazol-5-yl)phenyl)ethyl)pyrrolidine-2-carboxamide] | > 7.70 | 7.00 to 7.70 | pIC50 (MOLT-4; [5]): 7.90; pIC50 (RS4; 11; [6]): 7.37 |
